# Source: patent US5387602A, “1.5-diphenyl-3-(N-hydroxycarbamoyloxyalkyl)pyrazoles” (Ortho Pharmaceutical Corporation, priority 1993, dated 1995)
# Experiments:
# [1] = target: T1, RBL-1 Cell 5-Lipoxygenase (Rattus norvegicus, UniProt P12527); test: Procedure II: 5-lipoxygenase inhibition in disrupted RBL-1 cells (supernatant as enzyme source); format: biochemical; details: for IC50: read-out: IC50 5-LO (Procedure II)
# T1 construct: the supernatant was saved as the source of enzymes; endogenous in cells; host or cells: RBL-1 (rat basophilic leukemia cells), 10,000×g supernatant of homogenate
# T1 sequence (P12527 1-673): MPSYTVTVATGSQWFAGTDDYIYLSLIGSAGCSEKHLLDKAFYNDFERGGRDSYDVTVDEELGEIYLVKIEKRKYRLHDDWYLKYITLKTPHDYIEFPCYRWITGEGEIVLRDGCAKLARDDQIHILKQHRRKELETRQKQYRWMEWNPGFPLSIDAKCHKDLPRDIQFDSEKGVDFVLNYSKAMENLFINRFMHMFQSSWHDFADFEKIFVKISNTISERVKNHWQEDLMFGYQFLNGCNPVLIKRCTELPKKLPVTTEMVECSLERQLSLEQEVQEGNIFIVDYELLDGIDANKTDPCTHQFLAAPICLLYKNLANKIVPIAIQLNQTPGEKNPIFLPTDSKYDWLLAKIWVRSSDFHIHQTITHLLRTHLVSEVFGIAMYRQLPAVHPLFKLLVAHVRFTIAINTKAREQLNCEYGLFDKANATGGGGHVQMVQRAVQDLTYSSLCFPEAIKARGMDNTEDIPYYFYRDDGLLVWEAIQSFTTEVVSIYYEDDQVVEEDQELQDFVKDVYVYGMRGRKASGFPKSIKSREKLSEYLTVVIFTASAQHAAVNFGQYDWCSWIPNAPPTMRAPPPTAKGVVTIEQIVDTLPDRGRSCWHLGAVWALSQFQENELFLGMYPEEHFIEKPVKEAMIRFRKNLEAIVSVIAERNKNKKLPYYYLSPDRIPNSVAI
# Protocol: (§1) RBL-1 Cell 5-Lipoxygenase and Cyclooxygenase
# (§2) Rat basophilic leukemia cells (RBL-1; 5×10^7 viable cells/mL) were disrupted by homogenization on ice (four 20 sec bursts) with a Brinkman polytron. Complete cell breakage was verified microscopically. The homogenate was then centrifuged at 10,000×g for 48 minutes at 4° C. The pellet was discarded and the supernatant was saved as the source of enzymes. The supernatant was pre-incubated for five minutes at 37° C. in the presence of 2 mM of CaCl2 and compound or vehicle (1% DMSO). The conversion of AA into 5-LO products was initiated by adding 10 μL (50 μCi) of 1-^14 C-AA to each tube and incubated at 37° C. for 20 minutes. The reaction was stopped by adjusting the pH of each sample to 3 to 3.5 with 2M formic acid. Samples were extracted with three volumes of chloroform to isolate the products of 5-LO formed during the reaction. Fractions were dried under nitrogen, then resuspended in 40 μL of chloroform and spotted onto silica gel HL plates. The plates were developed in A-9 solvent. The dried plates were analyzed using a Bioscan Imaging TLC scanner to determine the percentage of radiolabelled AA converted to 5-HETE in each sample.
# (§3) In the following tables, the superscripts indicate the number of experiments and, unless otherwise stated, the dose at which % inhibition is reported is 3 MPK.
# CO in intact RBL-1 cells = target: T2, CO in intact RBL-1 cells (Rattus norvegicus, UniProt Q63921); test: Procedure III: inhibition of CO in intact RBL-1 cells; format: cell-based
# T2 construct: 5-LO and CO in intact RBL-1 cells; endogenous in cells; host or cells: RBL-1 (rat basophilic leukemia cells), intact
# T2 sequence (Q63921 27-602): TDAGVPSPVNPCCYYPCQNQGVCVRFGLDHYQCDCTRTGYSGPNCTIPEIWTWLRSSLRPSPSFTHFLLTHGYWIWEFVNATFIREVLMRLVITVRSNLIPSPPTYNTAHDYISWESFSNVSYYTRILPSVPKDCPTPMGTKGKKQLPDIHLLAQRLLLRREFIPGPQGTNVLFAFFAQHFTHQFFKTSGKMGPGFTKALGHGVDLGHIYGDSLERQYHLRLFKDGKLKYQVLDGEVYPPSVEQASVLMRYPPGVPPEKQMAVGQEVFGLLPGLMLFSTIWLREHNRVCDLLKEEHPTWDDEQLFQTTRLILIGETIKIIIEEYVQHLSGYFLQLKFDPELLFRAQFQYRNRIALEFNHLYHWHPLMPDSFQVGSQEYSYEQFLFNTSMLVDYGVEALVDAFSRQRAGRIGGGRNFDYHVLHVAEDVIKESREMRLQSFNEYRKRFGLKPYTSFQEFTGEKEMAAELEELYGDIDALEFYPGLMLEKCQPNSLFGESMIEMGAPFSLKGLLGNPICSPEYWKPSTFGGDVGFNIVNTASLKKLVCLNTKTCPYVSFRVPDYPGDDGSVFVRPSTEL
# Protocol: (§4) The ability to inhibit 5-LO and CO in intact RBL-1 cells was also evaluated. RBL-1 cells were maintained in culture in minimal essential medium (Bio*Whittaker, Walkersville, Md.), containing 12.5% fetal calf serum, 10 mg/mL streptomycin, 10 I.U./mL penicillin G, […] gentamycin and 2 mM L-glutamine (Bio*Whittaker, Walkersville, Md.). Cells were collected by centrifugation, washed once in HBSS, and resuspended at a concentration of 1×10^5 cells/mL. Cells were incubated in the presence of vehicle or drug then centrifuged at 800×g for 10 minutes at 4° C. The supernatant was removed by aspiration and the cells were resuspended in 0.5 mL of HBSS. The reaction was started by the addition of 20 μg/mL of calcium ionophore A-23187 (mixed calcium and magnesium salts, Calbiochem, La Jolla, Calif.) and allowed to proceed for 15 minutes, then stopped by plunging the tubes into a slush ice bath. The conversion of AA to 5-LO products was initiated by the addition of 10 μL (50 uCi) of 1-^14 C-AA. Products were isolated by acidification and extraction, followed by thin layer chromatography analysis as described above. Radioactive areas corresponding to authentic 5-LO and CO products were quantitated by the Bioscan 2000 Imaging System.
# as §3
# [2] = target: T3, RBL-1 Cell Cyclooxygenase (Rattus norvegicus, UniProt Q63921); test: Procedure II: cyclooxygenase inhibition in disrupted RBL-1 cells (supernatant as enzyme source); format: biochemical; details: for IC50: read-out: IC50 CO (Procedure II)
# T3 construct: the supernatant was saved as the source of enzymes; endogenous in cells; host or cells: RBL-1 (rat basophilic leukemia cells), 10,000×g supernatant of homogenate
# T3 sequence (Q63921 27-602): T2 sequence (Q63921 27-602)
# Protocol: as §1, §2, §3
# [3] = target: T4, 5-LO in intact RBL-1 cells (Rattus norvegicus, UniProt P12527); test: Procedure III: inhibition of 5-LO in intact RBL-1 cells; format: cell-based
# T4 construct: 5-LO and CO in intact RBL-1 cells; endogenous in cells; host or cells: RBL-1 (rat basophilic leukemia cells), intact
# T4 sequence (P12527 1-673): T1 sequence (P12527 1-673)
# Protocol: as §4, §3
SMILES,% INHIBITION 5-LO (Procedure II) [1] [%],IC50 [1] [nM],IC50 (CO in intact RBL-1 cells) [nM],% INHIBITION CO (Procedure II) [2] [%],IC50 [2] [nM],IC50 [3] [µM]
COc1ccc(-n2nc(COC(=O)NO)cc2-c2ccc(Cl)cc2)cc1 [1-A],20,1270,1400,34,180,24.2
COc1ccc(-n2nc(COC(=O)N(C)O)cc2-c2ccc(Cl)cc2)cc1 [1-B],85,480,380,52,1400,6.1
COc1ccc(-n2nc(COC(=O)N(O)C(C)C)cc2-c2ccc(Cl)cc2)cc1 [1-C],88,1020,540,80,1100,10.6
COc1ccc(-n2nc(COC(=O)NO)c(Br)c2-c2ccc(Cl)cc2)cc1 [1-D],28,840,2400,36,300,25.9
COc1ccc(-n2nc(COC(=O)N(C)O)c(Br)c2-c2ccc(Cl)cc2)cc1 [1-E],85,280,220,43,170,1.21
COc1ccc(-n2nc(COC(=O)N(O)C(C)C)c(Br)c2-c2ccc(Cl)cc2)cc1 [1-F],63,120,1900,0,880,3.6
COc1ccc(-n2nc(COC(=O)NO)c(Cl)c2-c2ccc(Cl)cc2)cc1 [1-G],25,750,2200,18,950,15.9
COc1ccc(-n2nc(COC(=O)N(C)O)c(Cl)c2-c2ccc(Cl)cc2)cc1 [1-H],83,< 100,390,41,220,2
COc1ccc(-n2nc(COC(=O)N(O)C(C)C)c(Cl)c2-c2ccc(Cl)cc2)cc1 [1-I],83,230,1970,3,1630,2.35
COc1ccc(-n2nc(COC(=O)NO)cc2-c2ccc(C)cc2)cc1 [1-J],33,1750,170,87,180,26
COc1ccc(-n2nc(COC(=O)N(C)O)cc2-c2ccc(C)cc2)cc1 [1-K],58,300,30,100,150,3.6
COc1ccc(-n2nc(COC(=O)N(O)C(C)C)cc2-c2ccc(C)cc2)cc1 [1-L],86,480,20,64,1700,3.8
COc1ccc(-n2nc(COC(=O)NO)c(Br)c2-c2ccc(C)cc2)cc1 [1-M],63,5300,860,85,1460,21.5
COc1ccc(-n2nc(COC(=O)N(C)O)c(Br)c2-c2ccc(C)cc2)cc1 [1-N],74,410,80,100,1140,3.46
COc1ccc(-n2nc(COC(=O)N(O)C(C)C)c(Br)c2-c2ccc(C)cc2)cc1 [1-O],81,180,860,82,3120,5.12
COc1ccc(-n2nc(COC(=O)NO)c(Cl)c2-c2ccc(C)cc2)cc1 [1-P],30,890,2500,0,1090,17.5
COc1ccc(-n2nc(COC(=O)N(C)O)c(Cl)c2-c2ccc(C)cc2)cc1 [1-Q],88,50,150,82,210,1.8
COc1ccc(-n2nc(COC(=O)N(O)C(C)C)c(Cl)c2-c2ccc(C)cc2)cc1 [1-R],87,100,4100,8,3800,2.7
